System: retinal ganglion cells
Assay: Optic nerve injury model ("optic crush" model), retinal ganglion cell survival
Assay type: in vivo
Conditions: male mice, intraocular injection following optic nerve injury, 14 days after injury, compared with PBS control; difference statistically significant (FIG. 1)
Description: A PDE1 inhibitory compound was tested in an optic nerve injury model (i.e., the “optic crush” model). The studies described below were carried out using the selective PDE1 inhibitor IC200041, which has the following structure:
In this model, optic nerve surgeries were performed on male mice 8 weeks of age (average body weight, 20-26 g) under general anesthesia, as described previously (Yin Y, et al., Oncomodulin links inflammation to optic nerve regeneration. Proc Natl Acad Sci USA. 2009; 106:19587-19592). Following nerve injury, 3 μl of fluid was removed from the eye and a solution containing the PDE1 inhibitory compound was injected intraocularly.
A total of 4 mouse retinas were treated with the PDE1 inhibitor, and phosphate buffered saline (PBS) was administered to a total of 10 mouse retinas as a control. Mice were typically euthanized with an overdose of anesthesia 14 days after optic nerve injury and were perfused with saline and 4% paraformaldehyde (PFA). These mice were 10 weeks old when killed. Optic nerves and eyes were dissected and postfixed in PFA. […] Axons were counted manually in at least 8 longitudinal sections per case at pre-specified distances from the injury site, and these numbers were converted into the number of regenerating axons at various distances.

SMILES: CN1C(=O)c2c(nn(Cc3ccc(-c4ccccn4)cc3)c2Nc2ccccc2)N2C1=N[C@@H]1CCC[C@@H]12 [IC200041]
- survival of retinal ganglion cells: highly effective in increasing the survival of retinal ganglion cells

Reference: patent US11628171B2, “Method for treating brain or nerve injury” (CHILDREN'S MEDICAL CENTER CORPORATION, priority 2019, dated 2023)
